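Cells were grown in 96-well plates and exposed to each compound for 48 hours at five concentrations; endpoints were interpolated linearly between bracketing concentrations, or set to the highest concentration if not reached. Here, GI50 denotes the concentration required for 50% inhibition of growth.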 Activity calls are given as the source filed them. Cut-off read from the data, not from the text of the source: active = GI50 up to about 1.1 µM and inactive = higher.

Test systems include A498; ACHN; COLO 205; HCT-116; HT-29; M14; MCF7; MDA-MB-435; MOLT-4; NCI-H23; NCI-H460; NCI/ADR-RES; OVCAR-3; OVCAR-8; PC-3; SN12C; SNB-19; UACC-257; UACC-62.
What all share (test): NCI anticancer screen, dose series, 48 h

On to `O=C(Cn1nnc(-c2ccccc2)n1)N/N=C/c1cn(Cc2ccc(Cl)cc2Cl)c2ccccc12`, for which the GI50 in the experiment on A498 is 75.5 µM (inactive); with ACHN, > 100 µM (inactive); in the experiment on COLO 205 it was > 100 µM (inactive); in the experiment with HCT-116 it was > 100 µM (inactive); with HT-29, > 100 µM (inactive); with M14, > 100 µM (inactive). For the same compound, the GI50 in the experiment with MCF7, in the experiment with MDA-MB-435, with MOLT-4, in the experiment on NCI-H23, in the experiment on NCI-H460 and in the experiment with NCI/ADR-RES was > 100 µM (inactive) throughout. The GI50 in the experiment with OVCAR-3, in the experiment with OVCAR-8, in the experiment with PC-3, in the experiment on SN12C, with SNB-19 and in the experiment with UACC-257 was > 100 µM (inactive) throughout. The GI50 with UACC-62 is > 100 µM (inactive).
Consider `CC(C)(C)N(Cc1ccc2c(c1)OCO2)C(=O)/C=C\Sc1ccccc1`, for which the GI50 was 71 µM (inactive) with A498; > 100 µM (inactive) in the experiment with ACHN; 45.1 µM (inactive) in the experiment on COLO 205; 23.9 µM (inactive) in the experiment on HCT-116; 28.8 µM (inactive) with HT-29; 77.1 µM (inactive) in the experiment on M14. The GI50 is 51.8 µM (inactive) with MCF7; 25.8 µM (inactive) in the experiment with MDA-MB-435; 21.1 µM (inactive) in the experiment on MOLT-4; > 100 µM (inactive) with NCI-H23; 89.5 µM (inactive) in the experiment on NCI/ADR-RES; > 100 µM (inactive) in the experiment with OVCAR-3. Besides, the GI50 with OVCAR-8 is > 100 µM (inactive); in the experiment with PC-3, 38.1 µM (inactive); in the experiment on SN12C, > 100 µM (inactive); with SNB-19, > 100 µM (inactive); with UACC-257 it was 71.1 µM (inactive); in the experiment with UACC-62, > 100 µM (inactive).
On to `COc1cc2c(cc1O)C1CC(CC3CCCCN31)OC(=O)/C=C\c1ccc(O)c-2c1` (configuration not stated), for which the GI50 in the experiment with A498 was 12.9 µM (inactive); in the experiment with ACHN it was 31.6 µM (inactive); in the experiment on COLO 205 it was 25.2 µM (inactive); in the experiment with HCT-116, 27.9 µM (inactive); with HT-29, 20.5 µM (inactive); in the experiment with M14, 19.6 µM (inactive). Besides, the GI50 in the experiment with MCF7 was 13.9 µM (inactive); in the experiment on MDA-MB-435 it was 21.9 µM (inactive); in the experiment with MOLT-4, 20 µM (inactive); in the experiment with NCI-H23 it was 64 µM (inactive); in the experiment on NCI-H460 it was 37.1 µM (inactive); with NCI/ADR-RES, 23.8 µM (inactive). The GI50 with OVCAR-3 was 21.3 µM (inactive); in the experiment on OVCAR-8, 21.6 µM (inactive); in the experiment on PC-3, 28.5 µM (inactive); in the experiment on SN12C, 37.2 µM (inactive); in the experiment on SNB-19, 63 µM (inactive); with UACC-257 it was 19.1 µM (inactive). Moreover, the GI50 with UACC-62 is 18 µM (inactive).
For `CCOC(=O)c1[nH]c2cccc3c2c1CC[C@H](NC(=O)C(F)(F)F)C3=O`, the GI50 is 43.7 µM (inactive) with A498; < 0.01 µM (active) in the experiment with ACHN; > 100 µM (inactive) in the experiment on COLO 205; 35.6 µM (inactive) in the experiment with HCT-116; > 100 µM (inactive) with HT-29; 95.5 µM (inactive) in the experiment on M14. Moreover, the GI50 with MCF7 is 73.1 µM (inactive); with MDA-MB-435 it was 45.1 µM (inactive); in the experiment with MOLT-4, > 100 µM (inactive); with NCI-H23 it was 70.6 µM (inactive); in the experiment on NCI-H460, 53.6 µM (inactive); in the experiment with NCI/ADR-RES it was 54 µM (inactive). The GI50 with OVCAR-3 is > 100 µM (inactive); in the experiment on OVCAR-8 it was 19.7 µM (inactive); with PC-3 it was 64.6 µM (inactive); in the experiment with SN12C, 40.3 µM (inactive); with SNB-19, 15.8 µM (inactive); in the experiment with UACC-257, 76.6 µM (inactive).
As for `N#Cc1nc(C#N)c(NC(=O)c2ccccc2C(=O)O)[nH]1`, the GI50 in the experiment on A498, in the experiment with ACHN, with COLO 205, in the experiment on HCT-116, in the experiment on HT-29 and in the experiment with M14 was > 100 µM (inactive) in each case. Moreover, the GI50 in the experiment on MCF7, in the experiment with MDA-MB-435, in the experiment on MOLT-4, in the experiment with NCI-H23, in the experiment with NCI/ADR-RES and in the experiment with OVCAR-3 was > 100 µM (inactive) each time. The GI50 in the experiment on OVCAR-8, with PC-3, in the experiment with SN12C, with SNB-19, with UACC-257 and with UACC-62 was > 100 µM (inactive) throughout.
As to `CCCCc1ccc(Nc2nc(N)c3[nH]cnc3n2)cc1`, the GI50 with A498 is 11.2 µM (inactive); in the experiment with ACHN it was 17 µM (inactive); in the experiment on COLO 205, 18.3 µM (inactive); with HCT-116, 17.1 µM (inactive); with HT-29, 13.8 µM (inactive); in the experiment with M14, 31.2 µM (inactive). Besides, the GI50 is 18.4 µM (inactive) in the experiment on MCF7; 21.5 µM (inactive) in the experiment on MDA-MB-435; 0.925 µM (active) with MOLT-4; 17.1 µM (inactive) with NCI-H23; 22.9 µM (inactive) in the experiment with NCI-H460; 15.2 µM (inactive) with NCI/ADR-RES. Besides, the GI50 in the experiment with OVCAR-3 was 20.7 µM (inactive); in the experiment with OVCAR-8, 15.8 µM (inactive); in the experiment on PC-3, 15 µM (inactive); in the experiment with SN12C, 13.9 µM (inactive); in the experiment on SNB-19 it was 17.8 µM (inactive); in the experiment with UACC-257 it was 26.5 µM (inactive). The GI50 in the experiment on UACC-62 was 17.2 µM (inactive).
Take `O=C1C=C2CC[C@H]3[C@@H]4CC[C@H](OC(=O)c5cccc6cc7ccccc7nc56)[C@H]4CC[C@@H]3[C@H]2CC1`: the GI50 in the experiment with A498, with ACHN, in the experiment on COLO 205, with HCT-116, in the experiment on HT-29 and in the experiment on M14 was > 100 µM (inactive) each time. For the same compound, the GI50 is > 100 µM (inactive) in the experiment with MCF7; > 100 µM (inactive) with MDA-MB-435; 54.3 µM (inactive) with MOLT-4; > 100 µM (inactive) in the experiment with NCI-H23; > 100 µM (inactive) in the experiment with NCI/ADR-RES; 39.5 µM (inactive) with OVCAR-3. The GI50 in the experiment on OVCAR-8, in the experiment with PC-3, in the experiment with SN12C, in the experiment on SNB-19, in the experiment with UACC-257 and with UACC-62 was > 100 µM (inactive) throughout.
In the case of `Cc1nc2c(=S)[nH]ncc2[nH]1`, the GI50 with A498, with ACHN, in the experiment with COLO 205, in the experiment on HCT-116, in the experiment with HT-29 and in the experiment on M14 was > 100 µM (inactive) throughout. Moreover, the GI50 was > 100 µM (inactive) in the experiment on MCF7; > 100 µM (inactive) with MDA-MB-435; > 10 µM (inactive) with MOLT-4; > 100 µM (inactive) in the experiment with NCI-H23; > 100 µM (inactive) with NCI/ADR-RES; > 100 µM (inactive) with OVCAR-3. The GI50 in the experiment on OVCAR-8, in the experiment on PC-3, in the experiment with SN12C, in the experiment with SNB-19, in the experiment with UACC-257 and in the experiment on UACC-62 was > 100 µM (inactive) throughout.

Values taken from ChEMBL document CHEMBL1201862, “PubChem BioAssay data set” (2004).
